Measurements: US8609381B2, “Methods to control bacterial growth in fermentation processes” (Dow Brasil Sudeste Industrial Ltda., priority 2007, dated 2013)

Tests used:
yeast = test: Effect of biocide on yeast level (SDA medium plate count); type: cell-based; conditions: biocide concentration 50 ppm, 2 hours after contact
Description: (§1) SDA medium is synthetic defined agar, and PCA medium is plate count agar. Dow Antimicrobial™ 7287 is a composition containing 20 percent 2,2-dibromo-3-nitrilopropionamide (DBNPA), sold by The Dow Chemical Company.

bacteria = test: Effect of biocide on bacteria level (PCA medium plate count); type: cell-based; conditions: biocide concentration 50 ppm, 2 hours after contact
Description: as §1

Molecule	Yeast level (yeast)	Bacteria level (bacteria)
O=CCCCC=O [UCARCIDE ™ 250, glutaraldehyde]	5.0 × 10^4 cfu/ml	5.0 × 10^5 cfu/ml
Diethyl Carbamate	<1.0 × 10^4 cfu/ml	2.6 × 10^7 cfu/ml
